Measured values: patent EP1857440A1, “Novel compounds, isomer thereof, or pharmaceutically acceptable salts thereof as vanilloid receptor antagonist; and pharmaceutical compositions containing the same” (Amorepacific Corporation, priority 2006, dated 2007)

Target: T1, vanilloid receptor (Rattus norvegicus, UniProt O35433)
T1 construct: DRG nerve cells from the primary culture of 2 days were equilibrated by washing 4 times; endogenous in cells; host or cells: primary culture of dorsal root ganglion (DRG) neurons from neonatal SD rats
T1 sequence (O35433 whole entry): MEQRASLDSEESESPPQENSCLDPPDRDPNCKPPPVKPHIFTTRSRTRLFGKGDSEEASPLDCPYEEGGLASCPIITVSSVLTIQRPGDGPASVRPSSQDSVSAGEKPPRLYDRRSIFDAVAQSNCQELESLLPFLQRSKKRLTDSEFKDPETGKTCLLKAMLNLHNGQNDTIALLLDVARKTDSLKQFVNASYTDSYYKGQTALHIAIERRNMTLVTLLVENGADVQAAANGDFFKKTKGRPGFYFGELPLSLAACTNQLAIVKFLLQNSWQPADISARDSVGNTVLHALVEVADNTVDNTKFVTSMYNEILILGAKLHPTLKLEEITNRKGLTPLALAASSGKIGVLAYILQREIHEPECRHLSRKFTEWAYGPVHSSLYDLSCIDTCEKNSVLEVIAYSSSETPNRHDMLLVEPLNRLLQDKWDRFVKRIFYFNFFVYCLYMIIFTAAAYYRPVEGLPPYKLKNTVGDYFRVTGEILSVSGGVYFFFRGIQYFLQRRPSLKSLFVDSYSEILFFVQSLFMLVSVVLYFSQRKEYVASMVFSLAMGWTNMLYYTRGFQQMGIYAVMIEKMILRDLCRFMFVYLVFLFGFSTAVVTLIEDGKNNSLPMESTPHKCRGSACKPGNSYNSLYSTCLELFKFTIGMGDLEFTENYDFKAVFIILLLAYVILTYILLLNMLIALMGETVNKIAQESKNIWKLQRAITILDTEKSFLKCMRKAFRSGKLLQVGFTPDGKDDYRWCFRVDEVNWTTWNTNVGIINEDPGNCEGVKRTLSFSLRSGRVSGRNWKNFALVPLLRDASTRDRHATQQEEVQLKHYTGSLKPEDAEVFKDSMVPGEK
Experiment: 45Ca influx test (calcium uptake) in primary cultured neonatal rat DRG neurons, capsaicin-stimulated
Type: cell-based, SD rats
Settings: capsaicin 0.5 µM; for IC50: 45Ca 10 µCi/ml, 10 mins at room temperature, read-out: Antagonist Calcium Uptake Test (IC50)
Description: 1) Separation of spinal dorsal root ganglia (DRG) in newborn rats and primary culture thereof
Neonatal (2-3 day old or younger than 2-3 day old) SD rats were put in ice for 5 minutes to anesthetize and disinfected with 70% ethanol. DRG of all part of spinal cord were dissected (Wood et al., 1988, J. Neurosci. 8, pp3208-3220) and collected in DME/F12 medium to which 1.2g/l sodium bicarbonate, 50mg/l gentamycin were added. The DRG were incubated sequentially at 37°C for 30 min in 200 U/ml collagenase and 2.5mg/ml trypsin, separately. The gangiia were washed twice with DME/F12 medium supplemented with 10% horse serum, triturated through a fire-polished Pasteur pipette, filtered through Nitex 80 membrane to obtain single cell suspension and the suspension was washed once more. This was subjected to centrifugation, then resuspended in cell culture medium at certain level of cell density. As the cell culture medium, DME/F12 medium supplemented with 10% horse serum was diluted with identical medium conditioned by C6 glioma cells 2 days on a confluent monolayer (1:1), and NGF (Nerve Growth Factor) was added to adjust 200ng/ml as final concentration. After the cells were grown 2 days in medium where cytosine arabinoside (Ara-C, 100 µM) was added to kill dividing nonneuronal cells, medium was changed to one without Ara-C. The resuspended cells were plated at a density of 1500-2000 neurons/well onto Terasaki plates previously coated with 10 µg/ml poly-D-ornithine.
2) ^45 Ca influx experiments
DRG nerve cells from the primary culture of 2 days were equilibrated by washing 4 times with HEPES (10mM, pH 7.4)-buffered Ca ^2+, Mg^2+-free HBSS (H-HBSS). The solution in each well was removed from the individual well. Medium containing the test compound plus capsaicin (final concentration 0.5 µM) and ^45Ca (final concentration 10 µCi/ml) in H-HBSS was added to each well and incubated at room temperature for 10 mins. Terasaki plates were washed five times with H-HBSS and dried at room temperature. To each well, 0.3% SDS (10 µl) was added to elute ^45Ca. After the addition of scintillation cocktail of into each well, the amount of ^45Ca influx into neuron was measured by counting radioactivity. […] [Table 1] Results of Calcium Influx Test

CS(=O)(=O)Nc1ccc(CNC(=O)COc2ccc(-c3ccccc3)cc2)cc1F [Example 27, 2-(Biphenyl-4-yloxy)-N-(3-fluoro-4-methanesulfonylamino-benzyl)-acetamide]
IC50: > 10000 nM

CS(=O)(=O)Nc1ccc(CNC(=O)COc2ccc(Cl)c(Cl)c2)cc1F [Example 25, 2-(3,4-Dichloro-phenoxy)-N-(3-fluoro-4-methanesulfonylaminobenzyl)-acetamide]
IC50: 2300 nM

CS(=O)(=O)Nc1ccc(CNC(=O)COc2ccccc2C2CCCCC2)cc1F [Example 63, N-(3-Fluoro-4-methanesulfonylaminobenzyl)-2-(2-cyclohexylphenoxy)acetamide]
Antagonist Calcium Uptake Test (% @ 10 µM) (10 µM test compound): 52% @ 10 µM

CS(=O)(=O)Nc1ccc(CNC(=O)COc2ccc(Cl)c(F)c2)cc1F [Example 59, N-(3-Fluoro-4-methanesulfonylaminobenzyl)-2-(4-chloro-3-fluorophenoxy)acetamide]
IC50: > 10000 nM

C[C@@H](Oc1ccc(C(C)(C)C)cc1)C(=O)NCc1ccc(NS(C)(=O)=O)c(F)c1 [Example 13, (R)-2-(4-tert-Butylphenoxy)-N-(3-fluoro-4-methanesulfonylaminobenzyl)propionamide]
IC50: 160 nM

CC(C)(Oc1ccc(C(F)(F)F)cc1)C(=O)NCc1ccc(NS(C)(=O)=O)c(Cl)c1 [Example 21, N-(3-Chloro-4-methanesulfonylamino-benzyl)-2-methyl-2-(4-trifluoromethyl-phenoxy)-propionamide]
IC50: > 10000 nM

CS(=O)(=O)Nc1ccc(CNC(=O)COc2ccc(-c3ccccc3Cl)cc2)cc1F [Example 60, 2-(2'-Chloro-biphenyl-4-yloxy)-N-(3-fluoro-4-methanesulfonylaminobenzyl)-acetamide]
IC50: > 10000 nM

CC(C)(C)c1cccc(OCC(=O)NCc2ccc(NS(C)(=O)=O)c(F)c2)c1 [Example 40, N-(3-Fluoro-4-methanesulfonylaminobenzyl)-2-(3-tert-butylphenoxy)acetamide]
IC50: 1800 nM

C=Cc1cc(CNC(=O)COc2ccc3c(c2)OCO3)cc(F)c1NS(C)(=O)=O [Example 30, 2-(Benzo[1,3]dioxol-5-yloxy)-N-(3-fluoro-4-methanesulfonylamino-5-vinyl-benzyl)-acetamide]
IC50: 3400 nM

CS(=O)(=O)Nc1ccc(CNC(=O)COc2ccc(F)cc2F)cc1F [Example 37, N-(3-Fluoro-4-methanesulfonylaminobenzyl)-2-(2,4-difluorophenoxy)acetamide]
IC50: > 10000 nM

Cc1cc(NS(C)(=O)=O)c(F)cc1CNC(=O)COc1ccc(C(C)(C)C)cc1 [Example 9, 2-(4-tert-Butylphenoxy)-N-(5-fluoro-4-methanesulfonylamino-2-methylbenzyl)acetamide]
IC50: 330 nM

COc1cc(C)ccc1OCC(=O)NCc1ccc(NS(C)(=O)=O)c(F)c1 [Example 31, N-(3-Fluoro-4-methanesulfonylamino-benzyl)-2-(2-methoxy-4-methyl-phenoxy)-acetamide]
IC50: > 10000 nM

CS(=O)(=O)Nc1ccc(CNC(=O)COc2ccc(F)c(F)c2)cc1F [Example 54, N-(3-Fluoro-4-methanesulfonylaminobenzyl)-2-(3,4-difluorophenoxy)acetamide]
IC50: > 10000 nM

CS(=O)(=O)Nc1ccc(CNC(=O)COc2ccc(C(F)(F)F)cc2I)cc1F [Example 39, N-(3-Fluoro-4-methanesulfonylamino-benzyl)-2-(2-iodo-4-trifluoromethyl-phenoxy)-acetamide]
IC50: > 10000 nM

Cc1cc(CNC(=O)COc2ccc(C(C)(C)C)cc2)cc(F)c1NS(C)(=O)=O [Example 10, 2-(4-tert-Butylphenoxy)-N-(3-fluoro-4-methanesulfonylamino-5-methylbenzyl) acetamide]
IC50: 160 nM

CS(=O)(=O)Nc1ccc(CNC(=O)COc2ccccc2C(F)(F)F)cc1F [Example 51, 2-(2-trifluoromethyl-phenoxy)-N-(3-fluoro-4-methanesulfonylaminobenzyl)-acetamide]
IC50: > 10000 nM

C[C@@H](NC(=O)COc1ccc(C(C)(C)C)cc1)c1ccc(NS(C)(=O)=O)cc1 [Example 11, (R)-2-(4-tert-Butylphenoxy)-N-[1-(4-methanesulfonylaminophenyl)ethyl]acetamide]
IC50: 96 nM

C[C@H](Oc1ccc(C(C)(C)C)cc1)C(=O)NCc1ccc(NS(C)(=O)=O)c(F)c1 [Example 14, (S)-2-(4-tert-Butylphenoxy)-N-(3-fluoro-4-methanesulfonylaminobenzyl)propionamide]
IC50: 760 nM

C#Cc1cc(CNC(=O)CSc2ccc(C(C)(C)C)cc2)cc(F)c1NS(C)(=O)=O [Example 20, 2-(4-tert-Butyl-phenylsulfanyl)-N-(3-ethynyl-5-fluoro-4-methanesulfonylamino-benzyl)-acetamide]
IC50: 190 nM

Cc1cc(CNC(=O)COc2ccc(C(C)(C)C)cc2)cc(Cl)c1NS(C)(=O)=O [Example 8, 2-(4-tert-Butyl-phenoxy)-N-(3-chloro-4-methanesulfonylamino-5-methylbenzyl)acetamide]
IC50: 110 nM

CC(C)(C)c1ccc(OCC(=O)NCc2cc(F)c(NS(C)(=O)=O)c(C#N)c2)cc1 [Example 47, 2-[4-(tert-butyl)phenoxy]-N-(3-cyano-5-fluoro-4-methanesulfonyl Amino-benzyl)acetamide]
IC50: 150 nM

CC(C)(Oc1ccc(C(F)(F)F)cc1)C(=O)NCc1ccc(NS(C)(=O)=O)c(F)c1 [Example 23, N-(3-Fluoro-4-methanesulfonylamino-benzyl)-2-methyl-2-(4-trifluoromethyl-phenoxy)-propionamide]
IC50: > 10000 nM

CS(=O)(=O)Nc1ccc(CNC(=O)COc2ccc(C(F)(F)F)cc2N2CCOCC2)cc1F [Example 43, N-(3-Fluoro-4-methanesulfonylamino-benzyl)-2-(2-morpholin-4-yl-4-trifluoromethyl-phenoxy)-acetamide]
IC50: > 10000 nM

CS(=O)(=O)Nc1ccc(CNC(=O)COCc2ccc(C(F)(F)F)cc2)cc1F [Example 26, N-(3-Fluoro-4-methanesulfonylamino-benzyl)-2-(4-trifluoromethylbenzyloxy)-acetamide]
IC50: > 10000 nM

CS(=O)(=O)Nc1ccc(CNC(=O)COc2cc(Cl)cc(Cl)c2)cc1F [Example 33, N-(3-Fluoro-4-methanesulfonylaminobenzyl)-2-(3,5-dichlorophenoxy)acetamide]
IC50: > 10000 nM

CC(C)(C)c1ccc(OCC(=O)NCc2ccc(NS(C)(=O)=O)cc2)cc1 [Example 1, 2-(4-tert-Butylphenoxy)-N-(4-methanesulfonylaminobenzyl)acetamide]
IC50: 110 nM

CC(C)(C)C(=O)OCc1cc(C(F)(F)F)ccc1OCC(=O)NCc1ccc(NS(C)(=O)=O)c(F)c1 [Example 58, 2,2-Dimethyl-propionic acid 2-[(3-fluoro-4-methanesulfonylaminobenzylcarbamoyl)-methoxy]-5-trifluoromethyl-benzyl ester]
IC50: 3000 nM

CCCOc1ccc(OCC(=O)NCc2ccc(NS(C)(=O)=O)c(F)c2)cc1 [Example 41, N-(3-Fluoro-4-methanesulfonylaminobenzyl)-2-(4-n-propoxyphenoxy)acetamide]
IC50: > 10000 nM

C[C@@H](NC(=S)COc1ccc(C(C)(C)C)cc1)c1ccc(NS(C)(=O)=O)cc1 [Example 15, (R)-2-(4-tert-Butylphenoxy)-N-[1-(4-methanesulfonylaminophenyl)ethyl]thioacetamide]
IC50: 680 nM

CC(C)(C)c1ccc(SCC(=O)NCc2ccc(NS(C)(=O)=O)c(F)c2)cc1 [Example 19, 2-(4-tert-Butyl-phenylsulfanyl)-N-(3-fluoro-4-methanesulfonylaminobenzyl)-acetamide]
IC50: 1500 nM

CS(=O)(=O)Nc1ccc(CNC(=O)COCc2ccc(C(F)(F)F)cc2C(F)(F)F)cc1F [Example 56, N-(3-Fluoro-4-methanesulfonylaminobenzyl)-2-(2,4-bis(trifluoromethyl)benzyloxy)acetamide]
IC50: 5100 nM

CS(=O)(=O)Nc1ccc(CNC(=O)COc2cccc(-c3ccccc3Cl)c2)cc1F [Example 61, 2-(2'-Chloro-biphenyl-3-yloxy)-N-(3-fluoro-4-methanesulfonylaminobenzyl)-acetamide]
IC50: 4500 nM

CS(=O)(=O)Nc1ccc(CNC(=O)COc2ccc(Cl)cc2Cl)cc1F [Example 22, 2-(2,4-Dichloro-phenoxy)-N-(3-fluoro-4-methanesulfonylaminobenzyl)-acetamide]
IC50: > 10000 nM

CS(=O)(=O)Nc1ccc(CNC(=O)COc2ccc(Cl)cc2)cc1F [Example 34, 2-(4-Chloro-phenoxy)-N-(3-fluoro-4-methanesulfonylamino-benzyl)-acetamide]
IC50: 8700 nM
